Laboratory results taken from ChEMBL document CHEMBL1142861, “Septocylindrins A and B: peptaibols produced by the terrestrial fungus Septocylindrium sp. LL-Z1518” (2007).
In brackets after ≈: the same amount, converted by molar mass. Non-standard residues stand in square brackets, D forms with d. Residues, ends and D or L forms follow the SMILES beside them. *: point of attachment. X1 = OCCNC[C@H](Cc1ccccc1)N*; Aib = CC(C)(N)C(=O)O

Legend:
Assay type in all cases: functional
Staphylococcus aureus [1] = assay: Antimicrobial activity against wild type Staphylococcus aureus by broth dilution method
Candida albicans = assay: Antimicrobial activity against Candida albicans by broth dilution method
Escherichia coli [2] = assay: Antimicrobial activity against wild type Escherichia coli by broth dilution method
Staphylococcus aureus [3] = assay: Antimicrobial activity against methicillin-resistant Staphylococcus aureus by broth dilution method
Escherichia coli [4] = assay: Antimicrobial activity against membrane permeability mutant Escherichia coli imp by broth dilution method
Enterococcus faecium = assay: Antimicrobial activity against vancomycin-resistant Enterococcus faecium by broth dilution method

Row | Compound | MIC (Staphylococcus aureus [1]) | MIC (Candida albicans) | MIC (Escherichia coli [2]) | MIC (Staphylococcus aureus [3]) | MIC (Escherichia coli [4]) | MIC (Enterococcus faecium)
1 | CC(=O)NC(C)(C)C(=O)N1CCC[C@H]1C(=O)NC(C)(C)C(=O)N[C@@H](C)C(=O)NC(C)(C)C(=O)N[C@@H](C)C(=O)N[C@@H](CCC(N)=O)C(=O)NC(C)(C)C(=O)N[C@H](C(=O)NC(C)(C)C(=O)NCC(=O)N[C@@H](CC(C)C)C(=O)NC(C)(C)C(=O)N1CCC[C@H]1C(=O)N[C@H](C(=O)NC(C)(C)C(=O)NC(C)(C)C(=O)N[C@@H](CCC(=O)O)C(=O)N[C@@H](CCC(N)=O)C(=O)N[C@H](CNCCO)Cc1ccccc1)C(C)C)C(C)C [septocylindrin A] (Ac-[Aib]P[Aib]A[Aib]AQ[Aib]V[Aib]GL[Aib]PV[Aib][Aib]EQ-X1) | 32 µg/mL (≈ 15.9 µM) | 32 µg/mL (≈ 15.9 µM) | > 128 µg/mL | 128 µg/mL (≈ 63.8 µM) | 32 µg/mL (≈ 15.9 µM) | 16 µg/mL (≈ 7.97 µM)
2 | CC(=O)NC(C)(C)C(=O)N1CCC[C@H]1C(=O)NC(C)(C)C(=O)N[C@@H](C)C(=O)NC(C)(C)C(=O)N[C@@H](C)C(=O)N[C@@H](CCC(N)=O)C(=O)NC(C)(C)C(=O)N[C@H](C(=O)NC(C)(C)C(=O)NCC(=O)N[C@@H](CC(C)C)C(=O)NC(C)(C)C(=O)N1CCC[C@H]1C(=O)N[C@H](C(=O)NC(C)(C)C(=O)NC(C)(C)C(=O)N[C@@H](CCC(N)=O)C(=O)N[C@@H](CCC(N)=O)C(=O)N[C@H](CNCCO)Cc1ccccc1)C(C)C)C(C)C [septocylindrin B] (Ac-[Aib]P[Aib]A[Aib]AQ[Aib]V[Aib]GL[Aib]PV[Aib][Aib]QQ-X1) | 8 µg/mL (≈ 3.99 µM) | 16 µg/mL (≈ 7.97 µM) | > 128 µg/mL | 16 µg/mL (≈ 7.97 µM) | 8 µg/mL (≈ 3.99 µM) | 8 µg/mL (≈ 3.99 µM)
